Experimental data: patent US20240009173A1, “Use of 5-HT3-Targeting Drugs for Treatment of Acute Kidney Injury” (priority 2020, published 2024)
Read-outs that look alike come from different tables or passages of the source.

How the values were obtained:
patients with AKI [1] = details: human, in vivo
patients with AKI [2] = details: human, in vivo; remark: listed apart in the source
patients with AKI [3] = system: patients with AKI; parameters: species or system human; details: in vivo
all ICU patients = details: cited from earlier work
ICU patients with AKI = details: cited from earlier work
[4] = literature and/or clinical trials

Compound: C[C@@H](O)[C@H]1C(=O)N2C(C(=O)O)=C(S[C@@H]3CN[C@H](C(=O)N(C)C)C3)[C@H](C)[C@H]12 [Meropenem]
- Death rate in MIMIC III database (patients with AKI [1]): 460.50 per 1,000 patients
- Death rate in eICU database (patients with AKI [2]): 269.96 per 1,000 patients
- Coefficient (patients with AKI [3]): 0.076
- Reported for protecting effect in all ICU patients (all ICU patients; [4]): Y^12
- Reported for protecting effect in ICU patients with AKI (ICU patients with AKI; [4]): Y^13

Compound: CC(=O)Nc1ccc(O)cc1 [Acetaminophen]
- Death rate in MIMIC III database (patients with AKI [1]): 181.26 per 1,000 patients
- Death rate in eICU database (patients with AKI [2]): 123.47 per 1,000 patients
- Coefficient (patients with AKI [3]): −0.040
- Reported for protecting effect in all ICU patients (all ICU patients; [4]): N
- Reported for protecting effect in ICU patients with AKI (ICU patients with AKI; [4]): N

Compound: OC(Cn1cncn1)(Cn1cncn1)c1ccc(F)cc1F [Fluconazole]
- Death rate in MIMIC III database (patients with AKI [1]): 333.33 per 1,000 patients
- Reported for protecting effect in all ICU patients (all ICU patients; [4]): Y^5
- Reported for protecting effect in ICU patients with AKI (ICU patients with AKI; [4]): Y^6

Compound: C[C@H](CS)C(=O)N1CCC[C@H]1C(=O)O [Captopril]
- Death rate in MIMIC III database (patients with AKI [1]): 133.04 per 1,000 patients
- Coefficient (patients with AKI [3]): −0.044
- Reported for protecting effect in all ICU patients (all ICU patients; [4]): Y^18
- Reported for protecting effect in ICU patients with AKI (ICU patients with AKI; [4]): Y^19

Compound: NC(N)=Nc1nc(CSCCC(N)=NS(N)(=O)=O)cs1 [Famotidine]
- Death rate in MIMIC III database (patients with AKI [1]): 260.79 per 1,000 patients
- Death rate in eICU database (patients with AKI [2]): 184.42 per 1,000 patients

Compound: CCCCC(CC)COC(=O)CC(C(=O)OCC(CC)CCCC)S(=O)(=O)O (centres unmarked) [Docusate]
- Death rate in MIMIC III database (patients with AKI [1]): 178.57 per 1,000 patients
- Death rate in eICU database (patients with AKI [2]): 136.48 per 1,000 patients
- Coefficient (patients with AKI [3]): −0.028
- Reported for protecting effect in all ICU patients (all ICU patients; [4]): N
- Reported for protecting effect in ICU patients with AKI (ICU patients with AKI; [4]): N

Compound: COc1ccnc(C[S+]([O-])c2nc3ccc(OC(F)F)cc3[nH]2)c1OC (centres unmarked) [Pantoprazole]
- Death rate in MIMIC III database (patients with AKI [1]): 254.46 per 1,000 patients
- Death rate in eICU database (patients with AKI [2]): 151.82 per 1,000 patients
- Coefficient (patients with AKI [3]): −0.025

Compound: CN[C@H](CC(C)C)C(=O)N[C@H]1C(=O)N[C@@H](CC(N)=O)C(=O)N[C@H]2C(=O)N[C@H]3C(=O)N[C@H](C(=O)N[C@H](C(=O)O)c4cc(O)cc(O)c4-c4cc3ccc4O)[C@H](O)c3ccc(c(Cl)c3)Oc3cc2cc(c3O[C@@H]2O[C@H](CO)[C@@H](O)[C@H](O)[C@H]2O[C@H]2C[C@](C)(N)[C@H](O)[C@H](C)O2)Oc2ccc(cc2Cl)[C@H]1O [Vancomycin]
- Death rate in MIMIC III database (patients with AKI [1]): 300.03 per 1,000 patients
- Death rate in eICU database (patients with AKI [2]): 229.29 per 1,000 patients

Compound: CCCCc1oc2ccccc2c1C(=O)c1cc(I)c(OCCN(CC)CC)c(I)c1 [Amiodarone]
- Death rate in MIMIC III database (patients with AKI [1]): 338.95 per 1,000 patients
- Death rate in eICU database (patients with AKI [2]): 269.89 per 1,000 patients
- Coefficient (patients with AKI [3]): 0.090
- Reported for protecting effect in all ICU patients (all ICU patients; [4]): N
- Reported for protecting effect in ICU patients with AKI (ICU patients with AKI; [4]): N

Compound: NC[C@H](O)c1ccc(O)c(O)c1 [Norepinephrine]
- Death rate in MIMIC III database (patients with AKI [1]): 497.51 per 1,000 patients
- Death rate in eICU database (patients with AKI [2]): 336.62 per 1,000 patients
- Coefficient (patients with AKI [3]): 0.167
- Reported for protecting effect in all ICU patients (all ICU patients; [4]): Y^2
- Reported for protecting effect in ICU patients with AKI (ICU patients with AKI; [4]): N

Compound: COc1ccc([C@@H]2Sc3ccccc3N(CCN(C)C)C(=O)[C@@H]2OC(C)=O)cc1 [Diltiazem]
- Death rate in MIMIC III database (patients with AKI [1]): 274.96 per 1,000 patients
- Death rate in eICU database (patients with AKI [2]): 121.74 per 1,000 patients

Compound: CN1CC[C@]23c4c5ccc(O)c4O[C@H]2[C@@H](O)C=C[C@H]3[C@H]1C5 [Morphine]
- Death rate in MIMIC III database (patients with AKI [1]): 376.48 per 1,000 patients
- Death rate in eICU database (patients with AKI [2]): 234.81 per 1,000 patients
- Coefficient (patients with AKI [3]): 0.198
- Reported for protecting effect in all ICU patients (all ICU patients): Y^1
- Reported for protecting effect in ICU patients with AKI (ICU patients with AKI): N

Compound: CC(=O)Oc1ccc(C(c2ccc(OC(C)=O)cc2)c2ccccn2)cc1 [Bisacodyl]
- Death rate in MIMIC III database (patients with AKI [1]): 194.46 per 1,000 patients
- Death rate in eICU database (patients with AKI [2]): 156.59 per 1,000 patients
- Coefficient (patients with AKI [3]): −0.021

Compound: Insulin
- Death rate in MIMIC III database (patients with AKI [1]): 241.12 per 1,000 patients
- Death rate in eICU database (patients with AKI [2]): 172.01 per 1,000 patients

Compound: CC(C)[N+]1(C)[C@@H]2CC[C@H]1C[C@@H](OC(=O)C(CO)c1ccccc1)C2 (some centres unmarked) [Ipratropium]
- Death rate in MIMIC III database (patients with AKI [1]): 258.87 per 1,000 patients
- Death rate in eICU database (patients with AKI [2]): 172.83 per 1,000 patients

Compound: CO/N=C(\C(=O)N[C@@H]1C(=O)N2C(C(=O)[O-])=C(C[N+]3(C)CCCC3)CS[C@H]12)c1csc(N)n1 [Cefepime]
- Death rate in MIMIC III database (patients with AKI [1]): 340.81 per 1,000 patients
- Death rate in eICU database (patients with AKI [2]): 228.51 per 1,000 patients

Compound: Cc1ncc([N+](=O)[O-])n1CCO [Metronidazole]
- Death rate in MIMIC III database (patients with AKI [1]): 338.05 per 1,000 patients
- Death rate in eICU database (patients with AKI [2]): 230.12 per 1,000 patients

Compound: C[C@@H]1C[C@H]2[C@@H]3CCC4=CC(=O)C=C[C@]4(C)[C@@]3(F)[C@@H](O)C[C@]2(C)[C@@]1(O)C(=O)CO [Dexamethasone]
- Death rate in MIMIC III database (patients with AKI [1]): 375 per 1,000 patients
- Death rate in eICU database (patients with AKI [2]): 58.14 per 1,000 patients

Compound: CC(=O)Oc1ccccc1C(=O)O [Aspirin]
- Death rate in MIMIC III database (patients with AKI [1]): 178.97 per 1,000 patients
- Death rate in eICU database (patients with AKI [2]): 126.32 per 1,000 patients

Compound: CCN1CCN(C(=O)N[C@@H](C(=O)N[C@@H]2C(=O)N3[C@@H]2SC(C)(C)[C@@H]3C(=O)O)c2ccccc2)C(=O)C1=O [Piperacillin]
- Death rate in MIMIC III database (patients with AKI [1]): 336.96 per 1,000 patients
- Death rate in eICU database (patients with AKI [2]): 200.39 per 1,000 patients
- Reported for protecting effect in all ICU patients (all ICU patients; [4]): Y
- Reported for protecting effect in ICU patients with AKI (ICU patients with AKI; [4]): N

Compound: CC(C)(C)NCC(O)c1ccc(O)c(CO)c1 (centres unmarked) [Albuterol]
- Death rate in MIMIC III database (patients with AKI [1]): 257.20 per 1,000 patients
- Death rate in eICU database (patients with AKI [2]): 174.59 per 1,000 patients

Compound: O=[N+]([O-])OCC(CO[N+](=O)[O-])O[N+](=O)[O-] [Nitroglycerin]
- Death rate in MIMIC III database (patients with AKI [1]): 192.42 per 1,000 patients
- Death rate in eICU database (patients with AKI [2]): 758.55 per 1,000 patients
- Reported for protecting effect in all ICU patients (all ICU patients): N
- Reported for protecting effect in ICU patients with AKI (ICU patients with AKI): N

Compound: C[C@H]1COc2c(N3CCN(C)CC3)c(F)cc3c(=O)c(C(=O)O)cn1c23 [Levofloxacin]
- Death rate in MIMIC III database (patients with AKI [1]): 270.20 per 1,000 patients
- Death rate in eICU database (patients with AKI [2]): 146.84 per 1,000 patients

Compound: C=CC[C@@H]1/C=C(\C)C[C@H](C)C[C@H](OC)[C@H]2O[C@@](O)(C(=O)C(=O)N3CCCC[C@H]3C(=O)O[C@H](/C(C)=C/[C@@H]3CC[C@@H](O)[C@H](OC)C3)[C@H](C)[C@@H](O)CC1=O)[C@H](C)C[C@@H]2OC [Tacrolimus]
- Death rate in MIMIC III database (patients with AKI [1]): 153.28 per 1,000 patients
- Death rate in eICU database (patients with AKI [2]): 40 per 1,000 patients

Compound: NNc1nncc2ccccc12 [Hydralazine]
- Death rate in MIMIC III database (patients with AKI [1]): 155.12 per 1,000 patients
- Death rate in eICU database (patients with AKI [2]): 80.60 per 1,000 patients
- Coefficient (patients with AKI [3]): −0.035

Compound: C[C@]12C=CC(=O)C=C1CC[C@@H]1[C@@H]2C(=O)C[C@@]2(C)[C@H]1CC[C@]2(O)C(=O)CO [Prednisone]
- Death rate in MIMIC III database (patients with AKI [1]): 191.30 per 1,000 patients
- Death rate in eICU database (patients with AKI [2]): 60.49 per 1,000 patients

Compound: CC(C)c1cccc(C(C)C)c1O [Propofol]
- Death rate in MIMIC III database (patients with AKI [1]): 287.82 per 1,000 patients
- Death rate in eICU database (patients with AKI [2]): 261.45 per 1,000 patients
- Reported for protecting effect in all ICU patients (all ICU patients): Y^16
- Reported for protecting effect in ICU patients with AKI (ICU patients with AKI): Y^17

Compound: Glucagon
- Death rate in MIMIC III database (patients with AKI [1]): 176.04 per 1,000 patients
- Death rate in eICU database (patients with AKI [2]): 129.74 per 1,000 patients
- Coefficient (patients with AKI [3]): −0.050

Compound: OC[C@H]1O[C@@H](O[C@@H]2[C@@H](CO)OC(O)(CO)[C@H]2O)[C@H](O)[C@@H](O)[C@H]1O (mixture of isomers) [Lactulose]
- Death rate in MIMIC III database (patients with AKI [1]): 326.35 per 1,000 patients
- Death rate in eICU database (patients with AKI [2]): 233.56 per 1,000 patients
- Reported for protecting effect in all ICU patients (all ICU patients; [4]): N
- Reported for protecting effect in ICU patients with AKI (ICU patients with AKI; [4]): N

Compound: CC1=C(C/C=C(\C)CCC[C@H](C)CCC[C@H](C)CCCC(C)C)C(=O)c2ccccc2C1=O [Phytonadione]
- Death rate in MIMIC III database (patients with AKI [1]): 364.17 per 1,000 patients
- Death rate in eICU database (patients with AKI [2]): 335.33 per 1,000 patients
- Reported for protecting effect in all ICU patients (all ICU patients; [4]): Y
- Reported for protecting effect in ICU patients with AKI (ICU patients with AKI; [4]): N

Compound: N[C@@H](Cc1cc(I)c(Oc2cc(I)c(O)c(I)c2)c(I)c1)C(=O)O [Levothyroxine]
- Death rate in MIMIC III database (patients with AKI [1]): 218.39 per 1,000 patients
- Death rate in eICU database (patients with AKI [2]): 109.02 per 1,000 patients

Compound: CC(C)c1c(C(=O)Nc2ccccc2)c(-c2ccccc2)c(-c2ccc(F)cc2)n1CC[C@@H](O)C[C@@H](O)CC(=O)O [Atorvastatin]
- Death rate in MIMIC III database (patients with AKI [1]): 156.06 per 1,000 patients
- Death rate in eICU database (patients with AKI [2]): 88.66 per 1,000 patients

Compound: [H]/N=C(\N/C(=N/[H])NCCCCCCNC(=N)NC(=N)Nc1ccc(Cl)cc1)Nc1ccc(Cl)cc1 [Chlorhexidine]
- Death rate in MIMIC III database (patients with AKI [1]): 328.48 per 1,000 patients
- Death rate in eICU database (patients with AKI [2]): 222.98 per 1,000 patients
